Laboratory results reported in patent US11053256B2, “Dihydropyranopyrimidines for the treatment of viral infections” (Janssen Sciences Ireland Unlimited Company, priority 2016, dated 2021).

Experiments:
[1] = biological target: T1, human TLR7 (Homo sapiens, UniProt Q9NYK1); test: Human TLR7 cellular reporter assay (HEK293, NFkB-luc); format: cell-based; details: HEK293 cells transiently transfected with TLR7 and NFkB-luc; 6 hours incubation; lowest effective concentration
T1 construct: expressed in transfected cells; host or cells: HEK293
T1 sequence (Q9NYK1 27-1049): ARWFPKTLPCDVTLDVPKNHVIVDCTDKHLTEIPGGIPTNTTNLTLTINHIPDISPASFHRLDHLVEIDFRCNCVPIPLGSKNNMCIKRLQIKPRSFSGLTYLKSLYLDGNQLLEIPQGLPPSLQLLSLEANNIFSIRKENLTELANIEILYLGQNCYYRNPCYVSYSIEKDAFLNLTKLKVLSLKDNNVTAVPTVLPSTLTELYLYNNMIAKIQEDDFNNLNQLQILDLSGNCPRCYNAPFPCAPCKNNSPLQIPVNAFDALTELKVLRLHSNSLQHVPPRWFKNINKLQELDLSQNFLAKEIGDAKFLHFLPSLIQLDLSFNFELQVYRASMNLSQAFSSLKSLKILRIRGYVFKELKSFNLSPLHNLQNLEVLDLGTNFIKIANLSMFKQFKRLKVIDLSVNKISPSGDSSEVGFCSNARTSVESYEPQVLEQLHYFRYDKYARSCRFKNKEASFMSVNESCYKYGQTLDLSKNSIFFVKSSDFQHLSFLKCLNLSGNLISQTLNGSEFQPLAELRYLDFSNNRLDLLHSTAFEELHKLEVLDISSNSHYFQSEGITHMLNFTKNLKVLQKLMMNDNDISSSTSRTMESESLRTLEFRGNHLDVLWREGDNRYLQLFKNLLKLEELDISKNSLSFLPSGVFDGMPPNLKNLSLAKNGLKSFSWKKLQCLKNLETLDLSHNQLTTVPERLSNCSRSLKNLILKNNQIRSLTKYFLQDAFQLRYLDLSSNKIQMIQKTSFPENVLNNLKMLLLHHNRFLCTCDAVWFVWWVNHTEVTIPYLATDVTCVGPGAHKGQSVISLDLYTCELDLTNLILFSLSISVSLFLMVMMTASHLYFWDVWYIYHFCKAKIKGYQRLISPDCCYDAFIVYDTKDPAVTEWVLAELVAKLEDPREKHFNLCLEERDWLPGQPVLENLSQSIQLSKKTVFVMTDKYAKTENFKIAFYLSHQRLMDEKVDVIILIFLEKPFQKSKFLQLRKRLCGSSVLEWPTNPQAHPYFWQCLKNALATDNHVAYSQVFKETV
Method: (§1) Assessment of human TLR7 and human TLR8 activity. The ability of compounds to activate human TLR7 and/or TLR8 was assessed in a cellular reporter assay using HEK293 cells transiently transfected with a TLR7 or TLR8 expression vector and NFkB-luc reporter construct.
(§2) Briefly, HEK293 cells were grown in culture medium (DMEM supplemented with 10% FCS and 2 mM glutamine). For transfection of cells in 15 cm dishes, cells were detached with Trypsin-EDTA, transfected with a mix of CMV-TLR7 or TLR8 plasmid (1700 ng), NFkB-luc plasmid (850 ng) and a transfection reagent and incubated for 48 h at 37° C. in a humidified 5% CO2 atmosphere. Transfected cells were then washed in PBS, detached with Trypsin-EDTA and resuspended in medium to a density of 1.25×10^5 cells/mL. Forty microliters of cells were then dispensed into each well in 384-well plates, where 200 nL of compound in 100% DMSO was already present. Following 6 hours incubation at 37° C., 5% CO2, the luciferase activity was determined by adding 15 μL of Steady Lite Plus substrate (Perkin Elmer) to each well and readout performed on a ViewLux ultraHTS microplate imager (Perkin Elmer). Dose response curves were generated from measurements performed in quadruplicates. Lowest effective concentrations (LEC) values, defined as the concentration that induces an effect which is at least two fold above the standard deviation of the assay, were determined for each compound.

[2] = biological target: T2, human TLR8 (Homo sapiens, UniProt Q9NR97); test: Human TLR8 cellular reporter assay (HEK293, NFkB-luc); format: cell-based; details: HEK293 cells transiently transfected with TLR8 and NFkB-luc; 6 hours incubation; lowest effective concentration
T2 construct: expressed in transfected cells; host or cells: HEK293
T2 sequence (Q9NR97 27-1041): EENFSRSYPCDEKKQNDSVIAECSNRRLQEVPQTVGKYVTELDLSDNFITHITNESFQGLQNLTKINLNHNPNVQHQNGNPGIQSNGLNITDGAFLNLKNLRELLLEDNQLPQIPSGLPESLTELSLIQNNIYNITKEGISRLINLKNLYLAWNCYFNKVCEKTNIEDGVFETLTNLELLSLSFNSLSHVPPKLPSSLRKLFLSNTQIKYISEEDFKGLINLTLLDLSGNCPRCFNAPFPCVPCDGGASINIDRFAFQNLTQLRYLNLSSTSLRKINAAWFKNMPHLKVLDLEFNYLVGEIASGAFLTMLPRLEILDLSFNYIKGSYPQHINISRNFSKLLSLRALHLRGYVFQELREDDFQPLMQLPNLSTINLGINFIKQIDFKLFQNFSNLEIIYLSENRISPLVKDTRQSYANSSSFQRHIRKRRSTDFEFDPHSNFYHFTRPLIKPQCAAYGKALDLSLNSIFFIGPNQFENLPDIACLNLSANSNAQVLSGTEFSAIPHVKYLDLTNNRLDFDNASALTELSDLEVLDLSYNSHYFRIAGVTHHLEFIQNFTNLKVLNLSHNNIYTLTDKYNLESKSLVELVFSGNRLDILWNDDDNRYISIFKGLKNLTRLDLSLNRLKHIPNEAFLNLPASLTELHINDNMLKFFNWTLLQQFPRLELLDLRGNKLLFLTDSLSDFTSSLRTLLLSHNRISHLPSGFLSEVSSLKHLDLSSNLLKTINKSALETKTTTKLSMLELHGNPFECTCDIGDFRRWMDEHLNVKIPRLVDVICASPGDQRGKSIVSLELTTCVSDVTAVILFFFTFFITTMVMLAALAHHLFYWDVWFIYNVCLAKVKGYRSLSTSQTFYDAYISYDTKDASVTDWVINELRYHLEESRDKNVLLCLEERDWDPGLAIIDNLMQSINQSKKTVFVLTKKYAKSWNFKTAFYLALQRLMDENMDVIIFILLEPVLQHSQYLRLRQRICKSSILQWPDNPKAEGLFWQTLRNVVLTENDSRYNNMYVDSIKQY
Method: as §1, §2

Structure (SMILES)	Human TLR 7 (LEC) [1] [µM]	Human TLR 8 (LEC) [2] [µM]
CCCCNc1nc(N)nc2c1COCC2 [Compound 3, N^4-butyl-7,8-dihydro-5H-pyrano[4,3-d]pyrimidine-2,4-diamine]	14.8	1.0
CCCC[C@H](CO)Nc1nc(N)nc2c1COCC2 [Compound 4, (2R)-2-[(2-amino-7,8-dihydro-5H-pyrano[4,3-d]pyrimidin-4-yl)amino]hexan-1-ol]	>100	1.3
CCCCNc1nc(N)nc2c1CCOC2 [Compound 7, N^4-butyl-5,8-dihydro-6H-pyrano[3,4-d]pyrimidine-2,4-diamine]	4.7	0.5
CCCC[C@H](CO)Nc1nc(N)nc2c1CCOC2 [Compound 8, (2R)-2-[(2-amino-5,8-dihydro-6H-pyrano[3,4-d]pyrimidin-4-yl)amino]hexan-1-ol]	>100	1.4
CCCCNc1nc(N)nc2c1OCCC2 [Compound 13, N^4-butyl-7,8-dihydro-6H-pyrano[3,2-d]pyrimidine-2,4-diamine]	0.8	0.1
CCCC[C@H](CO)Nc1nc(N)nc2c1OCCC2 [Compound 14, (2R)-2-[(2-amino-7,8-dihydro-6H-pyrano[3,2-d]pyrimidin-4-yl)amino]hexan-1-ol]	32.5	0.1
